Assay results: the NIST ThermoML archive (doi:10.1021/je060288t)

Assays:
[1] = 101 kPa, Liquid; for viscosity: Capillary tube (Ostwald / Ubbelohde) method; for mass density: Pycnometric method
[2] = xn = mol fraction of the nth substance listed; details: 101 kPa, Liquid; for viscosity: Capillary tube (Ostwald / Ubbelohde) method; for mass density: Pycnometric method

C=C(C)C(=O)OCCO [2-hydroxyethyl 2-methyl-2-propenoate]
[1]
Details	mass density [kg/m3]	viscosity [mPa·s]
298.15 K	1067.1	5.784
308.15 K	1057.7	4.194
318.15 K	1048.6	3.181

C=C(C)C(=O)O [2-methyl-2-propenoic acid]
[1]
Details	mass density [kg/m3]	viscosity [mPa·s]
298.15 K	1009.5	1.267
308.15 K	999.4	1.078
318.15 K	989.2	0.945

COCC(C)O (configuration not stated) [1-methoxy-2-propanol] + C=C(C)C(=O)OCCO
[2], x1 = 1
Details	mass density [kg/m3]	viscosity [mPa·s]
298.15 K	915.9	1.707
308.15 K	907.1	1.306
318.15 K	896.9	1.069

C=C(C)C(=O)OCc1ccccc1 [benzyl methacrylate]
[1]
Details	mass density [kg/m3]	viscosity [mPa·s]
298.15 K	1034.7	2.302
308.15 K	1025.8	1.885
318.15 K	1017	1.58

C=C(C)C(=O)OCc1ccccc1 [benzyl methacrylate] + COCC(C)O
[2]
Details	mass density, 298.15 K [kg/m3]	mass density, 308.15 K [kg/m3]	mass density, 318.15 K [kg/m3]	viscosity, 298.15 K [mPa·s]	viscosity, 308.15 K [mPa·s]	viscosity, 318.15 K [mPa·s]
x2 = 0	1034.7	1025.8	1017	2.302	1.885	1.58
x2 = 0.1	1026.8	1018.1	1009.5	2.194	1.806	1.52
x2 = 0.2	1018.6	1010.1	1001.4	2.09	1.716	1.441
x2 = 0.3	1009.8	1001.4	992.5	1.99	1.628	1.364
x2 = 0.4	1000.2	991.8	982.8	1.895	1.538	1.291
x2 = 0.5	989.7	981.3	972.2	1.8	1.465	1.228
x2 = 0.6	978.1	969.7	960.5	1.731	1.406	1.166
x2 = 0.7	965.2	956.8	947.5	1.677	1.354	1.115
x2 = 0.8	950.9	942.3	932.7	1.633	1.312	1.084
x2 = 0.9	934.6	925.9	916	1.64	1.308	1.077

COCC(C)O (configuration not stated) [1-methoxy-2-propanol]
[1]
Details	mass density [kg/m3]	viscosity [mPa·s]
298.15 K	915.9	1.707
308.15 K	907.1	1.306
318.15 K	896.9	1.069

C=C(C)C(=O)OCCO [2-hydroxyethyl 2-methyl-2-propenoate] + COCC(C)O
[2]
Details	mass density, 298.15 K [kg/m3]	mass density, 308.15 K [kg/m3]	mass density, 318.15 K [kg/m3]	viscosity, 298.15 K [mPa·s]	viscosity, 308.15 K [mPa·s]	viscosity, 318.15 K [mPa·s]
x2 = 0	1067.1	1057.7	1048.6	5.784	4.194	3.181
x2 = 0.1	1055.2	1046.2	1037.8	5.12	3.747	2.869
x2 = 0.2	1042.8	1034.1	1025.5	4.607	3.408	2.623
x2 = 0.3	1029.9	1021.2	1012.6	4.13	3.065	2.373
x2 = 0.4	1016.3	1007.5	998.9	3.656	2.757	2.148
x2 = 0.5	1001.7	993	984.4	3.256	2.477	1.947
x2 = 0.6	986.2	977.6	969	2.869	2.208	1.753
x2 = 0.7	969.8	961.5	952.8	2.496	1.944	1.559
x2 = 0.8	952.7	944.5	935.5	2.208	1.73	1.395
x2 = 0.9	934.8	926.6	917.3	1.933	1.528	1.237

COCC(C)O (configuration not stated) [1-methoxy-2-propanol] + C=C(C)C(=O)O
[2], x1 = 1
Details	mass density [kg/m3]	viscosity [mPa·s]
298.15 K	915.9	1.707
308.15 K	907.1	1.306
318.15 K	896.9	1.069

COCC(C)O (configuration not stated) [1-methoxy-2-propanol] + C=C(C)C(=O)OCc1ccccc1
[2], x1 = 1
Details	mass density [kg/m3]	viscosity [mPa·s]
298.15 K	915.9	1.707
308.15 K	907.1	1.306
318.15 K	896.9	1.069

C=C(C)C(=O)O [2-methyl-2-propenoic acid] + COCC(C)O
[2]
Details	mass density, 298.15 K [kg/m3]	mass density, 308.15 K [kg/m3]	mass density, 318.15 K [kg/m3]	viscosity, 298.15 K [mPa·s]	viscosity, 308.15 K [mPa·s]	viscosity, 318.15 K [mPa·s]
x2 = 0	1009.5	999.4	989.2	1.267	1.078	0.945
x2 = 0.1	1000.9	991.8	982.4	1.376	1.163	1.002
x2 = 0.2	992	983.2	974.2	1.659	1.372	1.157
x2 = 0.3	983.5	974.9	966.1	1.982	1.577	1.312
x2 = 0.4	975.3	966.5	957.5	2.124	1.702	1.394
x2 = 0.5	966.6	957.8	948.9	2.233	1.762	1.429
x2 = 0.6	957.5	948.7	940.2	2.255	1.77	1.432
x2 = 0.7	947.3	938.6	930.3	2.14	1.685	1.361
x2 = 0.8	936.9	928.3	919.9	1.969	1.554	1.258
x2 = 0.9	926.2	917.8	909.1	1.809	1.431	1.165
